From patent US12364709B2, “Bioavailable poly amines” (AMINEX THERAPEUTICS, INC., priority 2016, dated 2025)
Where “and” joins values, the source holds several entries; their conditions need not be identical. Identical values can stand only once.

Legend:
[1] = 5 day repeat oral dosing PK of AMXT 1501 dicaprate; assay type: in vivo, beagle dogs
Protocol: The pharmacokinetic (PK) profiles after dosing on Days 1 and 5 were evaluated using standard noncompartmental methods. The following experimental design was used. Beagle dogs, 1 or 2 males and 1 or 2 females for a total of 3 dogs per group, were randomly assigned to the four treatment groups as outlined in Table 19. AMXT 1501 dicaprate salt was administered in tablet form once daily for five days. […] Plasma samples were analyzed for AMXT 1501 concentration via a liquid chromatography/mass spectrometry (LC/MS-MS) procedure and the resulting concentration versus time data were used to estimate individual animal PK parameters using noncompartmental analysis (NCA).

[2] = Pharmacokinetic analysis of AMXT 1501 salt forms, single oral tablet dose; assay type: in vivo, beagle dogs; conditions: for Cmax / Tmax / half-life / AUC(0-t): beagle, dog, plasma, po
Description: Following dose administration all the animals had serial blood collections. Table 18 provides pharmacokinetic data obtained using the various salt forms of AMXT 1501 following single PO dosing to dogs. In Table 18, Group 1 received the free base form of AMXT 1501, Group 2 received the dicholate salt of AMXT 1501, Group 3 received the phosphate salt form of AMXT 1501, and Group 4 received the dicaprate salt form of AMXT 1501. […] In Table 18, SD refers to standard deviation and CV % refers to coefficient of variability.

[3] = 8 mg/kg PO once daily, Day 5, individual animals
[4] = 8 mg/kg PO, Day 1, individual animals
[5] = 16 mg/kg PO once daily, Day 5, individual animals
[6] = 16 mg/kg PO, Day 1, individual animals
[7] = 32 mg/kg PO once daily, Day 5, individual animals
[8] = 32 mg/kg PO, Day 1, individual animals
[9] = single PO dose 16.0 mg/kg (2 x 80 mg tablets), plasma AMXT 1501, 16 mg/kg
[10] = single PO dose 16.0 mg/kg, plasma AMXT 1501, 16 mg/kg
[11] = single PO dose 16.0 mg/kg, t=24 hours, plasma AMXT 1501, 16 mg/kg

**Q.** Which results are given for `CCCCCCCCCCCCCCCC(=O)NCCCC[C@@H](N)C(=O)NCCCNCCCCNCCCN` [AMXT 1501 dicaprate]?
**A.** AUC(0-t) [1, 3]: 5620 ng·h/mL and 3100 ng·h/mL; Cmax [1, 3]: 360 ng/mL and 254 ng/mL; t1/2 [1, 3]: 7.82 h; AUC(0-t) [1, 4]: 2050 ng·h/mL; Cmax [1, 4]: 168 ng/mL; AUC(0-t) [1, 5]: 11000 ng·h/mL; Cmax [1, 5]: 454 ng/mL and 714 ng/mL; Tmax [1, 5]: 12.0 h; AUC(0-t) [1, 6]: 3190 ng·h/mL and 3300 ng·h/mL; Cmax [1, 6]: 249 ng/mL; t1/2 [1, 6]: 36.2 h and 10.3 h; AUC(0-t) [1, 7]: 11000 ng·h/mL and 11100 ng·h/mL; Cmax [1, 7]: 662 ng/mL and 708 ng/mL; AUC(0-t) [1, 8]: 5830 ng·h/mL and 4900 ng·h/mL; Cmax [1, 8]: 446 ng/mL and 333 ng/mL; t1/2 [1, 8]: 27.1 h and 10.0 h; half-life ([1]; both sexes, beagle, dog, plasma, oral, Day 1, animals where it could be estimated, read-out: mean Day 1 t1/2 values, range across groups): 7.99 to 23.2 h; half-life at 5 days ([1]; both sexes, beagle, dog, plasma, oral, Day 5, animals where it could be estimated, read-out: mean Day 5 t1/2 values, range across groups): 8.69 to 20.8 h; AUC(0-t) ([1]; both sexes, beagle, dog, plasma, po, 8 mg/kg, 8 mg/kg PO once daily, Day 5, group mean, read-out: AUC0-t Mean): 4750 ng·h/mL; Cmax ([1]; both sexes, beagle, dog, plasma, po, 8 mg/kg, 8 mg/kg PO once daily, Day 5, group mean, read-out: Cmax Mean): 340 ng/mL; Tmax ([1]; both sexes, beagle, dog, plasma, po, 8 mg/kg, 8 mg/kg PO once daily, Day 5, group mean, read-out: Tmax Mean): 5.33 h; half-life ([1]; both sexes, beagle, dog, plasma, po, 8 mg/kg, 8 mg/kg PO once daily, Day 5, group mean, read-out: t1/2 Mean (converted)): 8.69 h; AUC(0-t) ([1]; both sexes, beagle, dog, plasma, po, 8 mg/kg, 8 mg/kg PO once daily, Day 5, individual animals, read-out: AUC0-t): 5530 ng·h/mL; Cmax ([1]; both sexes, beagle, dog, plasma, po, 8 mg/kg, 8 mg/kg PO once daily, Day 5, individual animals, read-out: Cmax): 405 ng/mL; Tmax ([1]; both sexes, beagle, dog, plasma, po, 8 mg/kg, 8 mg/kg PO once daily, Day 5, individual animals, read-out: Tmax): 8 h; half-life ([1]; both sexes, beagle, dog, plasma, po, 8 mg/kg, 8 mg/kg PO once daily, Day 5, individual animals, read-out: t1/2 (converted)): 9.55 h; AUC(0-t) ([1]; both sexes, beagle, dog, plasma, po, 8 mg/kg, 8 mg/kg PO, Day 1, group mean, read-out: AUC0-t Mean): 2030 ng·h/mL; Cmax ([1]; both sexes, beagle, dog, plasma, po, 8 mg/kg, 8 mg/kg PO, Day 1, group mean, read-out: Cmax Mean): 154 ng/mL; Tmax ([1]; both sexes, beagle, dog, plasma, po, 8 mg/kg, 8 mg/kg PO, Day 1, group mean, read-out: Tmax Mean): 6 h; half-life ([1]; both sexes, beagle, dog, plasma, po, 8 mg/kg, 8 mg/kg PO, Day 1, group mean, read-out: t1/2 Mean (converted)): 9.3 h; AUC(0-t) ([1]; both sexes, beagle, dog, plasma, po, 8 mg/kg, 8 mg/kg PO, Day 1, individual animals, read-out: AUC0-t): 2010 ng·h/mL; Cmax ([1]; both sexes, beagle, dog, plasma, po, 8 mg/kg, 8 mg/kg PO, Day 1, individual animals, read-out: Cmax): 139 ng/mL; Tmax ([1]; both sexes, beagle, dog, plasma, po, 8 mg/kg, 8 mg/kg PO, Day 1, individual animals, read-out: Tmax): 8 h; half-life ([1]; both sexes, beagle, dog, plasma, po, 8 mg/kg, 8 mg/kg PO, Day 1, individual animals, read-out: t1/2 (converted)): 9.3 h; AUC(0-t) ([1]; both sexes, beagle, dog, plasma, po, 16 mg/kg, 16 mg/kg PO once daily, Day 5, group mean, read-out: AUC0-t Mean): 8890 ng·h/mL; Cmax ([1]; both sexes, beagle, dog, plasma, po, 16 mg/kg, 16 mg/kg PO once daily, Day 5, group mean, read-out: Cmax Mean): 564 ng/mL; Tmax ([1]; both sexes, beagle, dog, plasma, po, 16 mg/kg, 16 mg/kg PO once daily, Day 5, group mean, read-out: Tmax Mean): 8 h; half-life ([1]; both sexes, beagle, dog, plasma, po, 16 mg/kg, 16 mg/kg PO once daily, Day 5, group mean, read-out: t1/2 Mean (converted)): 11.7 h; AUC(0-t) ([1]; both sexes, beagle, dog, plasma, po, 16 mg/kg, 16 mg/kg PO once daily, Day 5, individual animals, read-out: AUC0-t): 9410 ng·h/mL; Cmax ([1]; both sexes, beagle, dog, plasma, po, 16 mg/kg, 16 mg/kg PO once daily, Day 5, individual animals, read-out: Cmax): 523 ng/mL; half-life ([1]; both sexes, beagle, dog, plasma, po, 16 mg/kg, 16 mg/kg PO once daily, Day 5, individual animals, read-out: t1/2 (converted)): 11.7 h; AUC(0-t) ([1]; both sexes, beagle, dog, plasma, po, 16 mg/kg, 16 mg/kg PO, Day 1, group mean, read-out: AUC0-t Mean): 3450 ng·h/mL; Cmax ([1]; both sexes, beagle, dog, plasma, po, 16 mg/kg, 16 mg/kg PO, Day 1, group mean, read-out: Cmax Mean): 238 ng/mL; Tmax ([1]; both sexes, beagle, dog, plasma, po, 16 mg/kg, 16 mg/kg PO, Day 1, group mean, read-out: Tmax Mean): 5.33 h; half-life ([1]; both sexes, beagle, dog, plasma, po, 16 mg/kg, 16 mg/kg PO, Day 1, group mean, read-out: t1/2 Mean (converted)): 23.2 h; AUC(0-t) ([1]; both sexes, beagle, dog, plasma, po, 16 mg/kg, 16 mg/kg PO, Day 1, individual animals, read-out: AUC0-t): 3870 ng·h/mL; Cmax ([1]; both sexes, beagle, dog, plasma, po, 16 mg/kg, 16 mg/kg PO, Day 1, individual animals, read-out: Cmax): 202 ng/mL; Tmax ([1]; both sexes, beagle, dog, plasma, po, 16 mg/kg, 16 mg/kg PO, Day 1, individual animals, read-out: Tmax): 8 h; AUC(0-t) ([1]; both sexes, beagle, dog, plasma, po, 32 mg/kg, 32 mg/kg PO once daily, Day 5, group mean, read-out: AUC0-t Mean): 13000 ng·h/mL; Cmax ([1]; both sexes, beagle, dog, plasma, po, 32 mg/kg, 32 mg/kg PO once daily, Day 5, group mean, read-out: Cmax Mean): 837 ng/mL; Tmax ([1]; both sexes, beagle, dog, plasma, po, 32 mg/kg, 32 mg/kg PO once daily, Day 5, group mean, read-out: Tmax Mean): 6.67 h; half-life ([1]; both sexes, beagle, dog, plasma, po, 32 mg/kg, 32 mg/kg PO once daily, Day 5, group mean, read-out: t1/2 Mean (converted)): 10.7 h; AUC(0-t) ([1]; both sexes, beagle, dog, plasma, po, 32 mg/kg, 32 mg/kg PO once daily, Day 5, individual animals, read-out: AUC0-t): 16800 ng·h/mL; Cmax ([1]; both sexes, beagle, dog, plasma, po, 32 mg/kg, 32 mg/kg PO once daily, Day 5, individual animals, read-out: Cmax): 1140 ng/mL; Tmax ([1]; both sexes, beagle, dog, plasma, po, 32 mg/kg, 32 mg/kg PO once daily, Day 5, individual animals, read-out: Tmax): 4 h; half-life ([1]; both sexes, beagle, dog, plasma, po, 32 mg/kg, 32 mg/kg PO once daily, Day 5, individual animals, read-out: t1/2 (converted)): 10.7 h; AUC(0-t) ([1]; both sexes, beagle, dog, plasma, po, 32 mg/kg, 32 mg/kg PO, Day 1, group mean, read-out: AUC0-t Mean): 5660 ng·h/mL; Cmax ([1]; both sexes, beagle, dog, plasma, po, 32 mg/kg, 32 mg/kg PO, Day 1, group mean, read-out: Cmax Mean): 447 ng/mL; Tmax ([1]; both sexes, beagle, dog, plasma, po, 32 mg/kg, 32 mg/kg PO, Day 1, group mean, read-out: Tmax Mean): 5.33 h; half-life ([1]; both sexes, beagle, dog, plasma, po, 32 mg/kg, 32 mg/kg PO, Day 1, group mean, read-out: t1/2 Mean (converted)): 18.6 h; AUC(0-t) ([1]; both sexes, beagle, dog, plasma, po, 32 mg/kg, 32 mg/kg PO, Day 1, individual animals, read-out: AUC0-t): 6250 ng·h/mL; Cmax ([1]; both sexes, beagle, dog, plasma, po, 32 mg/kg, 32 mg/kg PO, Day 1, individual animals, read-out: Cmax): 563 ng/mL; Tmax ([1]; both sexes, beagle, dog, plasma, po, 32 mg/kg, 32 mg/kg PO, Day 1, individual animals, read-out: Tmax): 8 h; Tmax ([1]; both sexes, beagle, dog, plasma, po, 32 mg/kg, single or repeat once daily PO 8, 16, or 32 mg/kg, postdose, read-out: Tmax observed): 4 to 12 h; Cmax ([2]; 16 mg/kg, single PO dose 16.0 mg/kg (2 x 80 mg tablets), plasma AMXT 1501, read-out: Cmax Mean): 276 ng/mL; Cmax ([2]; 16 mg/kg, single PO dose 16.0 mg/kg (2 x 80 mg tablets), plasma AMXT 1501, read-out: Cmax Median): 278 ng/mL; Tmax ([2]; 16 mg/kg, single PO dose 16.0 mg/kg (2 x 80 mg tablets), plasma AMXT 1501, read-out: Tmax Mean): 6 h; Tmax ([2]; 16 mg/kg, single PO dose 16.0 mg/kg (2 x 80 mg tablets), plasma AMXT 1501, read-out: Tmax Median): 6 h; half-life ([2]; 16 mg/kg, single PO dose 16.0 mg/kg, plasma AMXT 1501, read-out: t1/2 Mean (converted)): 14 h; half-life ([2]; 16 mg/kg, single PO dose 16.0 mg/kg, plasma AMXT 1501, read-out: t1/2 Median (converted)): 13.4 h; AUC(0-t) ([2]; 16 mg/kg, single PO dose 16.0 mg/kg, t=24 hours, plasma AMXT 1501, read-out: AUC0-t Mean): 6580 ng·h/mL; AUC(0-t) ([2]; 16 mg/kg, single PO dose 16.0 mg/kg, t=24 hours, plasma AMXT 1501, read-out: AUC0-t Median): 6370 ng·h/mL; Cmax Max. [2, 9]: 349 ng/mL; Cmax Min. [2, 9]: 201 ng/mL; t1/2 Max. [2, 10]: 16.2 h; t1/2 Min. [2, 10]: 12.4 h; AUC0-t Max. [2, 11]: 8640 ng·h/mL; AUC0-t Min. [2, 11]: 4710 ng·h/mL; inter-animal consistency of plasma AMXT 1501 levels ([2]; single oral delivery, FIGS. 5A-5D): much more consistent inter-animal blood levels
